Data reported in patent US20240252493A1, “Apelin Receptor Modulators for Treating Age-Related Muscle Conditions” (BIOAGE LABS, INC., priority 2021, published 2024).
Entries after “also recorded” stand apart in the source; their conditions may differ.

Assays:
[1] = test system: aged (24-month-old) C57BL/6 mice; experiment: Activity monitoring wheel test (frailty study); type: in vivo; conditions: 24-month-old mice
Method: The animals were housed with access to voluntary running wheels that wirelessly transmit running data to a computer for analysis. Voluntary running wheel activity levels were measured daily, and body weights were measured every 2 weeks.
The study concluded on Study Day 83. Activity wheel monitoring started on Study Day 1 and ended on Study Day 83 (Phase Day 64). The data was analyzed at the end of the study. […] For the frailty portion of the study, mice were assessed using an activity monitoring wheel which was monitored passively with a computer monitoring system. […]
The activity-monitoring wheel is a running disk that monitors rotations. […] Activity was monitored passively and wirelessly with a computer monitoring system. Running wheel activity levels were monitored daily. […] Mouse activity levels were measured as the number of wheel revolutions per day for each mouse and converted into a daily count of kilometers run using the diameter of the wheel. Within each experimental group, the daily median value for activity was calculated. […] The daily differences between the distances run in each group were calculated and tested for an increasing trend using Kendall's rank correlation tau.

[2] = test system: Pax7, MyoD, MyoG, Myf5, MyHC3, and MyHC8; experiment: CTX-induced muscle injury: transcript levels of regeneration genes; type: in vivo, mice
Method: Impairment of muscle regeneration can contribute to age-related muscle weakness. This is particularly true in aged individuals who engage in physical activity. Exercise-induced muscle hypertrophy is linked to the capacity of muscle stem cells to be activated and promote regeneration. […] Mice were i.p injected with buprenorphine (Centravet, 0.1 mg/kg) 30 minutes before injury and the day after. The day of the injury, mice were anesthetized with isoflurane inhalation and hindlimbs were shaved. Then, 10 μM of cardiotoxin (CTX, Latoxan, #L8102) was injected through two injections of 25 μl into the left tibialis muscle and two injections of 50 μl into the left gastrocnemius muscle, using a 22-gauge needle (Hamilton). Mice were euthanized 3 and 7 days after injury by cervical dislocation, muscles (PBS- and CTX-injected) were cut in two parts, one being snap frozen into liquid nitrogen for total RNA extraction and the other part being embedded into OCT, frozen in isopentane cooled with liquid nitrogen for histological analysis.

[3] = gastrocnemius, aged mice, 3 or 7 days, apelin 0.5 μmol/kg/day, BGE-105 50 and 200 mg/kg/day
[4] = gastrocnemius, young mice, 3 or 7 days, apelin 0.5 μmol/kg/day, BGE-105 50 and 200 mg/kg/day
[5] = tibialis anterior, aged mice, 7 days, apelin 0.5 μmol/kg/day, BGE-105 50 and 200 mg/kg/day
[6] = tibialis, young mice, 3 or 7 days, apelin 0.5 μmol/kg/day, BGE-105 50 and 200 mg/kg/day

For `COc1cccc(OC)c1-n1c(NS(=O)(=O)[C@@H](C)[C@H](C)c2ncc(C)cn2)nnc1-c1cncc(C)c1` [BGE-105, (2S,3R)—N-(4-(2,6-dimethoxyphenyl)-5-(5-methyl-3-pyridinyl)-4H-1,2,4-triazol-3-yl)-3-(5-methyl-2-pyrimidinyl)-2-butanesulfonamide], the “voluntary running wheel activity vs age-matched controls” value ([1]; 275 ug/mL in drinking water ad libitum, 64 days) was “statistically significant increase in voluntary motor activity; also recorded: significantly more active; also recorded: decreased significantly less”, the “distance run more than vehicle-treated mice at end of experimental period” value ([1]; 275 ug/mL in drinking water, both experiments, on average) was “at least 1 km/day” and the “expression levels of genes involved in muscle regeneration (Pax7, MyoD, MyoG, Myf5, MyHC3, MyHC8)” value ([2]; aged (18-month-old) mice, tibialis, 7 days after CTX, vs PBS) was “significantly higher levels of several mRNA transcripts; also recorded: dramatically higher”. The “effect on regeneration gene expression in gastrocnemius compared with tibialis” value ([2]; aged mice, gastrocnemius) was “not as prominent”, the Pax7 transcript levels ([2]; gastrocnemius, aged (18-month-old) mice, 3 or 7 days, apelin 0.5 μmol/kg/day, BGE-105 50 and 200 mg/kg/day) was “no significant change” and the MyoD transcript levels ([2]; gastrocnemius, aged mice, 3 and 7 days, apelin 0.5 μmol/kg/day, BGE-105 50 and 200 mg/kg/day) was “significant increase”. The Myf5 transcript levels [2, 3] was “no significant change”, the MyoG transcript levels [2, 3] was “no significant change” and the MyHC8 transcript levels ([2]; gastrocnemius, aged mice, any time point, any treatment) was “does not show a change”. The MyHC3 transcript levels ([2]; gastrocnemius, aged mice, only at 7 days, BGE-105 200 mg/kg/day) was “significant increase”, the Pax7 transcript levels ([2]; gastrocnemius, young (3-month-old) mice, 3 or 7 days, apelin 0.5 μmol/kg/day, BGE-105 50 and 200 mg/kg/day) was “no change” and the Myf5 transcript levels [2, 4] was “no change”. The MyoD transcript levels [2, 4] was “no change”, the MyoG transcript levels [2, 4] was “no change” and the MyHC8 transcript levels ([2]; gastrocnemius, young mice, 3 days, apelin 0.5 μmol/kg/day, BGE-105 50 and 200 mg/kg/day) was “non-significant increase”. The MyHC3 transcript levels ([2]; gastrocnemius, young mice, only 3 days, BGE-105 50 mg/kg/day) was “increase”, the Pax7 transcript levels ([2]; tibialis anterior, aged (18-month-old) mice, 7 days post cardiotoxin, apelin 0.5 μmol/kg/day, BGE-105 50 and 200 mg/kg/day) was “significant increase” and the MyoD transcript levels ([2]; tibialis anterior, aged mice, 3 and 7 days post cardiotoxin, apelin 0.5 μmol/kg/day, BGE-105 50 and 200 mg/kg/day) was “significant increase”. The MyHC3 transcript levels [2, 5] was “significant increase”, the Myf5 transcript levels [2, 5] was “significant change” and the MyoG transcript levels [2, 5] was “significant increase”. For the same molecule, the Pax7 transcript levels ([2]; tibialis, young (3-month-old) mice, 3 or 7 days, apelin 0.5 μmol/kg/day, BGE-105 50 and 200 mg/kg/day) was “no change”, the MyHC3 transcript levels [2, 6] was “no significant change” and the MyHC8 transcript levels [2, 6] was “no significant change”. The Myf5 transcript levels [2, 6] was “no difference”, the MyoD transcript levels [2, 6] was “no significant increase” and the MyoG transcript levels [2, 6] was “no difference”. The “effect on regeneration gene expression in young mice” value ([2]; young (3-month-old) mice) was “not as effective”.
